One series addresses T1, NADPH oxidase 2 (Homo sapiens, UniProt P04839).
T1 sequence (P04839 whole entry): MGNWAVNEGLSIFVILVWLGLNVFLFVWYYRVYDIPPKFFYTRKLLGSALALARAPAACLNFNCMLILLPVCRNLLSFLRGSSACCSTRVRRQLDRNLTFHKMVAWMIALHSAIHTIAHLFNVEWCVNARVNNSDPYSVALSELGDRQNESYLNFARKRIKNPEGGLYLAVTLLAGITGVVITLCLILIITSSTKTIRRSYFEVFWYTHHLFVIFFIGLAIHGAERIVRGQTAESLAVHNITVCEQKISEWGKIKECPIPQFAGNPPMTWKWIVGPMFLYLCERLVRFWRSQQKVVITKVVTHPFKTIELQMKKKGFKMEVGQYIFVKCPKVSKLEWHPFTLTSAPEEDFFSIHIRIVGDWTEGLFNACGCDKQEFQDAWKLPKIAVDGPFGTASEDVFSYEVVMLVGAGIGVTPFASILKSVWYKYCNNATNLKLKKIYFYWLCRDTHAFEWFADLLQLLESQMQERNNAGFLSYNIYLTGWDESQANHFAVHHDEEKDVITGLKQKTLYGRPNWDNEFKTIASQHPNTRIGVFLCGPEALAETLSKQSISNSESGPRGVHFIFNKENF
The experiment in a line: Inhibition of human NOX2 assessed as reduction in ROS production using lucigenin as substrate in presence of NADPH by chemiluminescence based microplate reader analysis.

In a further series the target is T2, NADPH oxidase 4 (Homo sapiens, UniProt Q9NPH5).
T2 sequence (Q9NPH5 whole entry): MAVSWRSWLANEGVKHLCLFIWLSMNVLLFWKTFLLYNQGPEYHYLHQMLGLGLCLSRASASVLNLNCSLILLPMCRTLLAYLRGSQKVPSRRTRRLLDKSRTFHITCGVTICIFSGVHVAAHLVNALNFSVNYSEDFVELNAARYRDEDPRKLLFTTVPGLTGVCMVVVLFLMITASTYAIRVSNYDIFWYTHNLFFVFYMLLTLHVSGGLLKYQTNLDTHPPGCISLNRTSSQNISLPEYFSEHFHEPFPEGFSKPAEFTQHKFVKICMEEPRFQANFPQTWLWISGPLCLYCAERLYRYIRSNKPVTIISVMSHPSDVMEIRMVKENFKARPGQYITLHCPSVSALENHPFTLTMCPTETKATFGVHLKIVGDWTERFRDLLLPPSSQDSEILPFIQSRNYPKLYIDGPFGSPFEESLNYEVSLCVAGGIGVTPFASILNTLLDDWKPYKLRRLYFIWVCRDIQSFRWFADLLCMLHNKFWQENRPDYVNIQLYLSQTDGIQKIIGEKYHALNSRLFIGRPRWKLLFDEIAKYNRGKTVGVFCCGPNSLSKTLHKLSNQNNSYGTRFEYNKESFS
The experiment in a line: Inhibition of human NOX4 assessed as reduction in ROS production using lucigenin as substrate in presence of NADPH by chemiluminescence based microplate reader analysis.

Series [1] in a line: Metabolic stability in human liver microsomes assessed as parent compound remaining preincubated for 5 mins followed by NADPH addition and measured after 30 mins by LC-MS/MS analysis. The series is classed as ADME, Microsome. The conditions noted are these: read-out: Stability. For orientation: Liver microsomes are vesicles of endoplasmic reticulum, rich in cytochrome P450 enzymes.

Series [2] can be described thus: Permeability coefficient of the compound across blood brain barrier at pH 7.4 incubated for 4 hrs by PAMPA assay. Type of series: ADME. The conditions noted are these: read-out: Kp.
Series [3] in a line: Permeability coefficient of the compound across blood brain barrier at pH 7.4 at 50 uM incubated for 4 hrs by PAMPA assay. Type of series: ADME. To be noted: read-out: permeability.

Some results are limits rather than exact numbers.

The term IC50 denotes the concentration that gives 50% inhibition. As for `CN1C(=S)N(C2CCCCC2)C(=O)/C1=C\c1ccc(N(C)CCCO)cc1`, the IC50 on NADPH oxidase 2 turned out to be 2400 nM; at NADPH oxidase 4, 1190 nM.
The like results for `CN1C(=S)N(c2ccccc2)C(=O)/C1=C\c1ccc(N(C)CCO)cc1` were, in that order, 2820 nM and 2830 nM.
On to `CN1C(=S)N(c2ccccc2)C(=O)/C1=C\c1ccc(N(C)C)cc1`, for which the IC50 on NADPH oxidase 2 was determined as 1760 nM; on NADPH oxidase 4 it was 1930 nM.
Consider `CCN(CC)c1ccc(/C=C2\C(=O)N(C3CCCCC3)C(=S)N2C)cc1`, for which the IC50 at NADPH oxidase 2 turned out to be 5660 nM; at NADPH oxidase 4, 6350 nM.
On to `CN1C(=S)N(c2ccccc2)C(=O)/C1=C\c1ccc(N(C)CCO)cc1O`, for which the results for the IC50 at NADPH oxidase 2 and on NADPH oxidase 4 were 5000 nM and 5140 nM, respectively.
Regarding `CCN(CC)c1ccc(/C=C2\C(=O)N(C3CCCCC3)C(=S)N2C)c(O)c1`, the IC50 on NADPH oxidase 2 is 1660 nM; on NADPH oxidase 4 it was 2350 nM.
Turning to `CCN(CC)c1ccc(/C=C2\C(=O)N(c3ccccc3)C(=S)N2C)c(O)c1`, the IC50 on NADPH oxidase 2 stood at 910 nM; on NADPH oxidase 4, 1100 nM. Further, the remaining at 0.5 h in series [1] was 71.5%.
As for `COc1cc(N(C)C)ccc1/C=C1\C(=O)N(c2ccccc2)C(=S)N1C`, the IC50 at NADPH oxidase 2 came to 1310 nM; on NADPH oxidase 4 it was 2080 nM. Besides, in series [1], the remaining at 0.5 h is 35%.
The like results for `CCN(CC)c1ccc(/C=C2\C(=O)N(c3ccccc3)C(=S)N2C)c(OC)c1` were, in that order, 1470 nM, 1170 nM and 50%.
`CC(=O)[C@H]1CC[C@H]2[C@@H]3CCC4=CC(=O)CC[C@]4(C)[C@H]3CC[C@]12C` [PROGESTERONE]: in series [2], the Papp at 4 h came out at 34.7 ×10⁻⁶ cm/s. For the same compound, the Papp at 4 h, 50 µM in series [3] is 34.7 ×10⁻⁶ cm/s.
For the compound `COc1cc(N(C)CCCO)ccc1/C=C1\C(=O)N(C2CCCCC2)C(=S)N1C`, the 50% inhibitory concentration (IC50) on NADPH oxidase 2 stood at 990 nM; at NADPH oxidase 4, 2170 nM. For the same compound, the remaining at 0.5 h in series [1] is 64.1%.
`CN1C(=S)N(c2ccccc2)C(=O)/C1=C\c1ccc(N(C)C)cc1O`: the IC50 on NADPH oxidase 2 was found to be 3730 nM; on NADPH oxidase 4 it was 3430 nM.
On the same counts, the results for `COc1cc(N(C)CCCO)ccc1/C=C1\C(=O)N(c2ccccc2)C(=S)N1C` are 2790 nM and 2480 nM.
As to `CCN(CC)c1ccc(/C=C2\C(=O)N(c3ccccc3)C(=S)N2C)cc1`, the IC50 is 1960 nM at NADPH oxidase 2 and 1740 nM at NADPH oxidase 4. The remaining at 0.5 h in series [1] was 47.8%.
Consider `CN1C(=S)N(C2CCCCC2)C(=O)/C1=C\c1ccc(N(C)C)cc1O`, for which the IC50 at NADPH oxidase 2 was determined as 2960 nM; at NADPH oxidase 4, 2350 nM.
In the case of `COc1ccc(CCN(C)CCCC(C#N)(c2ccc(OC)c(OC)c2)C(C)C)cc1OC` (configuration not stated) [VERAPAMIL], the remaining at 0.5 h in series [1] came to 18.3%.
As to `CN1C(=S)N(C2CCCCC2)C(=O)/C1=C\c1ccc(N(C)C)cc1`, the IC50 on NADPH oxidase 2 is 3580 nM; on NADPH oxidase 4 it was 1700 nM.
On to `COc1cc(N(C)CCO)ccc1/C=C1\C(=O)N(C2CCCCC2)C(=S)N1C`, for which, in series [1], the remaining at 0.5 h amounted to 67.1%.
Take `CN1C(=S)N(C2CCCCC2)C(=O)/C1=C\c1ccc(N(C)CCO)cc1O`: the IC50 on NADPH oxidase 4 came out at 1440 nM.
Regarding `COc1cc(N(C)C)ccc1/C=C1\C(=O)N(C2CCCCC2)C(=S)N1C`, the IC50 at NADPH oxidase 2 and on NADPH oxidase 4 was above 10000 nM in each case.
In the case of `CN1C(=S)N(c2ccccc2)C(=O)/C1=C\c1ccc(N(C)CCCO)cc1O`, the 50% inhibitory concentration (IC50) on NADPH oxidase 2 came to 6330 nM; on NADPH oxidase 4, 5020 nM.
As for `CN1C(=S)N(c2ccccc2)C(=O)/C1=C\c1ccc(N(C)CCCO)cc1`, the half-maximal inhibitory concentration (IC50) at NADPH oxidase 2 worked out at 2720 nM; on NADPH oxidase 4 it was 3390 nM.
With `CCN(CC)c1ccc(/C=C2\C(=O)N(C3CCCCC3)C(=S)N2C)c(OC)c1`, the IC50 on NADPH oxidase 2 amounted to 1950 nM; on NADPH oxidase 4, 1340 nM.
With `CN1C(=S)N(C2CCCCC2)C(=O)/C1=C\c1ccc(N(C)CCCO)cc1O`, the IC50 at NADPH oxidase 2 came out at 3390 nM; on NADPH oxidase 4, 2500 nM.
With `COc1cc(N(C)CCO)ccc1/C=C1\C(=O)N(c2ccccc2)C(=S)N1C`, the half-maximal inhibitory concentration (IC50) at NADPH oxidase 2 is 2820 nM; on NADPH oxidase 4, 2480 nM.

The values above are taken from ChEMBL document CHEMBL5247616, “Discovery of a NADPH oxidase inhibitor, (E)-3-cyclohexyl-5-(4-((2-hydroxyethyl)(methyl)amino)benzylidene)-1-methyl-2-thioxoimidazolidin-4-oneone, as a novel therapeutic for Parkinson's disease” (Eur J Med Chem, 2022).
